Laboratory results as given in PubChem BioAssay AID1963844 (Molecular Pharmacology Branch, DTP, NCI, 2024).

Test system: 422866-222-R5-J1-PDC complex spheroid viability
Assay: Anticancer human tumor 422866-222-R5-J1-PDC patient-derived pancreatic adenocarcinoma cell line growth inhibition [POLQ]
Conditions: for IC50: curve of first compound; for viability, T/C: stronger effect = lower value
Procedure, shortened: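 Patient-derived tumour cells were co-cultured with HUVEC and mesenchymal stem cells as multicellular spheroids at 37 °C. They were treated with POLQ inhibitors (novobiocin, ART-558, RP6685) alone or combined with other agents. Top concentrations were at or near clinical Cmax (otherwise 10 microM; SN-38 at 1 microM), decreasing in half-log steps.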

[1] = second compound 0.0316 µM, first compound 0.0316 µM
[2] = second compound 0.0316 µM, first compound 0.1 µM
[3] = second compound 0.1 µM, first compound 0.0316 µM
[4] = second compound 0.1 µM, first compound 0.1 µM
[5] = second compound 0.316 µM, first compound 0.0316 µM
[6] = second compound 0.316 µM, first compound 0.1 µM
[7] = second compound 1 µM, first compound 0.0316 µM
[8] = second compound 1 µM, first compound 0.1 µM
[9] = second compound 3.16 µM, first compound 0.0316 µM
[10] = second compound 3.16 µM, first compound 0.1 µM
[11] = second compound 10 µM, first compound 0.0316 µM
[12] = second compound 10 µM, first compound 0.1 µM
[13] = second compound 0.0316 µM, first compound 0.316 µM
[14] = second compound 0.0316 µM, first compound 1 µM
[15] = second compound 0.0316 µM, first compound 3.16 µM
[16] = second compound 0.0316 µM, first compound 10 µM
[17] = second compound 0.1 µM, first compound 0.316 µM
[18] = second compound 0.1 µM, first compound 1 µM
[19] = second compound 0.1 µM, first compound 3.16 µM
[20] = second compound 0.1 µM, first compound 10 µM
[21] = second compound 0.316 µM, first compound 0.316 µM
[22] = second compound 0.316 µM, first compound 1 µM
[23] = second compound 0.316 µM, first compound 3.16 µM
[24] = second compound 0.316 µM, first compound 10 µM
[25] = second compound 1 µM, first compound 0.316 µM
[26] = second compound 1 µM, first compound 1 µM
[27] = second compound 1 µM, first compound 3.16 µM
[28] = second compound 1 µM, first compound 10 µM
[29] = second compound 3.16 µM, first compound 0.316 µM
[30] = second compound 3.16 µM, first compound 1 µM
[31] = second compound 3.16 µM, first compound 3.16 µM
[32] = second compound 3.16 µM, first compound 10 µM
[33] = second compound 10 µM, first compound 0.316 µM
[34] = second compound 10 µM, first compound 1 µM
[35] = second compound 10 µM, first compound 3.16 µM
[36] = second compound 10 µM, first compound 10 µM
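Further: spheroids exposed to compounds for one week before readout.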
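Wherever viability, T/C is given: percent of DMSO vehicle wells luminescence so 100% = untreated viability.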

CC[C@@]1(O)C(=O)OCc2c1cc1n(c2=O)Cc2cc3c(CN(C)C)c(O)ccc3nc2-1 + Nc1ccc(C#CCN(C(=O)Cc2ncc(C(F)(F)F)cc2C(F)(F)F)c2ccc(F)cc2)nn1
IC50 (second compound 0.0316 µM): 0.0263 µM
IC50 (second compound 0.1 µM): 0.0184 µM
IC50 (second compound 0.316 µM): 0.0195 µM
IC50 (second compound 1 µM): 0.0107 µM
IC50 (second compound 3.16 µM): 0.0197 µM
IC50 (second compound 10 µM): 0.0266 µM
viability, T/C (second compound 0.0316 µM, first compound 0.000316 µM): 102%
viability, T/C (second compound 0.0316 µM, first compound 0.001 µM): 109%
viability, T/C (second compound 0.0316 µM, first compound 0.00316 µM): 93.3%
viability, T/C (second compound 0.0316 µM, first compound 0.01 µM): 76%
viability, T/C [1]: 44%
viability, T/C [2]: 34.6%
viability, T/C (second compound 0.1 µM, first compound 0.000316 µM): 99.1%
viability, T/C (second compound 0.1 µM, first compound 0.001 µM): 87.2%
viability, T/C (second compound 0.1 µM, first compound 0.00316 µM): 89.6%
viability, T/C (second compound 0.1 µM, first compound 0.01 µM): 63.9%
viability, T/C [3]: 37.4%
viability, T/C [4]: 33.6%
viability, T/C (second compound 0.316 µM, first compound 0.000316 µM): 85.6%
viability, T/C (second compound 0.316 µM, first compound 0.001 µM): 105%
viability, T/C (second compound 0.316 µM, first compound 0.00316 µM): 87%
viability, T/C (second compound 0.316 µM, first compound 0.01 µM): 63.8%
viability, T/C [5]: 40.8%
viability, T/C [6]: 34.8%
viability, T/C (second compound 1 µM, first compound 0.000316 µM): 105%
viability, T/C (second compound 1 µM, first compound 0.001 µM): 108%
viability, T/C (second compound 1 µM, first compound 0.00316 µM): 80.5%
viability, T/C (second compound 1 µM, first compound 0.01 µM): 53.6%
viability, T/C [7]: 33.3%
viability, T/C [8]: 35.7%
viability, T/C (second compound 3.16 µM, first compound 0.000316 µM): 89.2%
viability, T/C (second compound 3.16 µM, first compound 0.001 µM): 100%
viability, T/C (second compound 3.16 µM, first compound 0.00316 µM): 92.9%
viability, T/C (second compound 3.16 µM, first compound 0.01 µM): 68.1%
viability, T/C [9]: 36.9%
viability, T/C [10]: 37%
viability, T/C (second compound 10 µM, first compound 0.000316 µM): 114%
viability, T/C (second compound 10 µM, first compound 0.001 µM): 99.4%
viability, T/C (second compound 10 µM, first compound 0.00316 µM): 100%
viability, T/C (second compound 10 µM, first compound 0.01 µM): 75.8%
viability, T/C [11]: 44.5%
viability, T/C [12]: 31.5%

COc1cc2cc(C(=O)CCC(=O)O)sc2cc1OC + Cc1cccc(N(C)C(=O)C2C(O)CCN2c2nc(C)cc(C(F)(F)F)c2C#N)c1
IC50 (second compound 0.0316 µM): > 10 µM
IC50 (second compound 0.1 µM): > 10 µM
IC50 (second compound 0.316 µM): > 10 µM
IC50 (second compound 1 µM): > 10 µM
IC50 (second compound 3.16 µM): > 10 µM
IC50 (second compound 10 µM): > 10 µM
viability, T/C [1]: 95.6%
viability, T/C [2]: 106%
viability, T/C [13]: 98.6%
viability, T/C [14]: 90.5%
viability, T/C [15]: 85.4%
viability, T/C [16]: 103%
viability, T/C [3]: 101%
viability, T/C [4]: 91.1%
viability, T/C [17]: 82.6%
viability, T/C [18]: 101%
viability, T/C [19]: 75.5%
viability, T/C [20]: 121%
viability, T/C [5]: 116%
viability, T/C [6]: 90.3%
viability, T/C [21]: 91.8%
viability, T/C [22]: 93.4%
viability, T/C [23]: 93.7%
viability, T/C [24]: 116%
viability, T/C [7]: 94.9%
viability, T/C [8]: 113%
viability, T/C [25]: 98.2%
viability, T/C [26]: 80.3%
viability, T/C [27]: 87.9%
viability, T/C [28]: 117%
viability, T/C [9]: 107%
viability, T/C [10]: 101%
viability, T/C [29]: 109%
viability, T/C [30]: 93.1%
viability, T/C [31]: 85.7%
viability, T/C [32]: 121%
viability, T/C [11]: 88.6%
viability, T/C [12]: 93%
viability, T/C [33]: 103%
viability, T/C [34]: 75.2%
viability, T/C [35]: 79.6%
viability, T/C [36]: 112%

CC(C)n1c(=O)n(C)c2cnc3cc(F)c(-c4ccc(OCCCN5CCCCC5)nc4)cc3c21 + Nc1ccc(C#CCN(C(=O)Cc2ncc(C(F)(F)F)cc2C(F)(F)F)c2ccc(F)cc2)nn1
IC50 (second compound 0.0316 µM): > 10 µM
IC50 (second compound 0.1 µM): > 10 µM
IC50 (second compound 0.316 µM): > 10 µM
IC50 (second compound 1 µM): > 10 µM
IC50 (second compound 3.16 µM): > 10 µM
IC50 (second compound 10 µM): 9.87 µM
viability, T/C [1]: 116%
viability, T/C [2]: 116%
viability, T/C [13]: 90.3%
viability, T/C [14]: 99.3%
viability, T/C [15]: 90.7%
viability, T/C [16]: 62.2%
viability, T/C [3]: 88.6%
viability, T/C [4]: 102%
viability, T/C [17]: 97.5%
viability, T/C [18]: 88.3%
viability, T/C [19]: 82.8%
viability, T/C [20]: 66.2%
viability, T/C [5]: 114%
viability, T/C [6]: 109%
viability, T/C [21]: 95.1%
viability, T/C [22]: 105%
viability, T/C [23]: 71.8%
viability, T/C [24]: 53.3%
viability, T/C [7]: 107%
viability, T/C [8]: 110%
viability, T/C [25]: 108%
viability, T/C [26]: 91.2%
viability, T/C [27]: 85.2%
viability, T/C [28]: 59.1%
viability, T/C [9]: 100%
viability, T/C [10]: 105%
viability, T/C [29]: 114%
viability, T/C [30]: 76.4%
viability, T/C [31]: 71.3%
viability, T/C [32]: 60.8%
viability, T/C [11]: 96.8%
viability, T/C [12]: 110%
viability, T/C [33]: 87.9%
viability, T/C [34]: 92.5%
viability, T/C [35]: 94.4%
viability, T/C [36]: 49.5%
